PubChem BioAssay (NCI)
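Five compound concentrations were applied to cells in 96-well plates for 48 hours; endpoints were derived by simple linear interpolation of the resulting dose-response curve. At the GI50, growth is halved. The concentration for full growth arrest is given as TGI.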

What was measured:
Test in all cases: inhibition of tumour cell growth, NCI panel, 48 h
CCRF-CEM leukemia = tested on: CCRF-CEM leukemia
COLO 205 colon = tested on: COLO 205 colon
HS 578T breast = tested on: HS 578T breast
MDA-MB-231 breast = tested on: MDA-MB-231 breast
NCI-H460 lung = tested on: NCI-H460 lung
PC-3 prostate = tested on: PC-3 prostate
RPMI-8226 leukemia = tested on: RPMI-8226 leukemia
SF-268 CNS = tested on: SF-268 CNS
T-47D breast = tested on: T-47D breast
TK-10 renal = tested on: TK-10 renal

Structure (SMILES)	TGI (CCRF-CEM leukemia) [µM]	TGI (COLO 205 colon) [µM]	TGI (HS 578T breast) [µM]	TGI (MDA-MB-231 breast) [µM]	TGI (NCI-H460 lung) [µM]	TGI (PC-3 prostate) [µM]	TGI (RPMI-8226 leukemia) [µM]	TGI (SF-268 CNS) [µM]	TGI (T-47D breast) [µM]	TGI (TK-10 renal) [µM]	GI50 (CCRF-CEM leukemia) [µM]	GI50 (COLO 205 colon) [µM]	GI50 (HS 578T breast) [µM]	GI50 (MDA-MB-231 breast) [µM]	GI50 (NCI-H460 lung) [µM]	GI50 (PC-3 prostate) [µM]	GI50 (RPMI-8226 leukemia) [µM]	GI50 (SF-268 CNS) [µM]	GI50 (T-47D breast) [µM]	GI50 (TK-10 renal) [µM]
NS(=O)(=O)c1ccc(NC(=O)c2cccc3cc4ccccc4nc23)cc1	> 100	> 100	> 100	> 100	> 100	> 100	> 100	> 100	> 100	> 91.2	–	–	–	–	–	–	–	–	–	–
COc1cc(/C=C2\C(=O)Nc3cccc(Cl)c32)cc(OC)c1OC	0.527	> 100	> 100	> 100	> 100	> 100	> 100	> 100	> 100	> 100	0.0529	> 100	> 100	33.3	> 100	> 100	53.7	> 100	> 100	> 100
CCCN(CCSSCCNc1nc(N(C)O)nc(N(C)O)n1)c1nc(N(C)O)nc(N(C)O)n1	> 100	> 100	> 100	> 100	> 100	> 100	> 100	> 100	> 100	> 100	2.24	2.9	25.5	18.5	3.87	82.4	4.48	6.37	7.14	3.25
Cn1c(=O)c(Oc2ccccc2)cc2cnc(NC3CCOCC3)nc21	> 25	> 25	> 25	> 25	> 25	> 25	> 25	> 25	> 25	> 25	> 25	> 25	> 25	> 25	> 25	> 25	> 25	> 25	> 25	> 25
CN(C)CCCn1c2nc(=O)[nH]c(=O)c-2nc2cc(Cl)c(Cl)cc21	18.7	2.83	> 100	14.9	> 100	8.8	12.9	17.6	5.86	14.1	3.81	1.35	30.9	3.88	14.5	2.67	3.25	5.31	1.76	4.62
CNCCCNCCCN1C(=O)c2ccc3c4c(ccc(c24)C1=O)C(=O)N(CCCNCc1ccccc1OC)C3=O	4.53	1.85	28.5	14	2.86	10.1	9.44	9.02	4.1	14.1	0.465	0.498	3.02	2.9	0.429	1.6	1.64	1.03	1.25	2.58
C=C1C[C@@]2(C)C(CC[C@]3(C)C2CC=C2C4CC(C)(C)C[C@@H](OC(=O)/C(C)=C\C)[C@]4(C(=O)O)CC[C@]23C)C(C)(C)C1=O (some centres undefined)	22.9	17.6	34.4	31.4	11	5.94	5.69	28	15.2	17.9	2.11	3.59	5.21	5.96	3.22	1.99	1.42	6.76	3.25	4.57
NC(CC1=CCC=CC1)C(=O)O (centres undefined)	> 100	> 100	> 100	> 100	> 100	> 100	> 100	> 100	> 100	> 100	–	–	–	–	–	–	–	–	–	–
COc1ccccc1/C=C/C(=O)/C=C/c1ccccc1OC	9.19	3.5	39.2	8.75	5.64	7.03	8.43	4.57	8.4	8.83	2.04	1.94	3.4	2.97	2.16	2.26	2.25	1.92	1.47	3.52
C=C1C(=O)O[C@H]2[C@H]1CC/C(Cn1cc(-c3cc(C)c(C)cc3C)nn1)=C\CC[C@@]1(C)O[C@@H]21	2.65	2.15	6.2	2.62	10.8	3	4.11	3.06	2.45	2.83	0.458	0.643	1.94	1.11	3.16	1.47	1.18	1.52	0.539	1.46
Cc1[nH]nc2c1N=C(c1ccccc1Cl)c1cc([N+](=O)[O-])ccc1N2	> 25	> 25	> 25	> 25	> 25	> 25	> 25	> 25	> 25	> 25	0.76	0.981	0.223	4.42	0.484	0.233	0.97	1.14	> 25	9.23
O=C1NN(c2ccccc2)C(=O)/C1=C/c1ccc(Br)o1	19.8	11.2	3.11	20.9	36	26.3	10.9	47.7	52.3	33.7	5.23	3.75	1.49	–	15.1	6.9	0.777	14	18.9	13.2
NC1=Nc2cc(OCCCN3Cc4ccccc4C3)c(OCC3CC3)cc2C12CCCC2	9.26	3.29	17.7	3.65	4.67	12.7	4.51	16.9	4.54	8.16	2.45	1.59	2.83	1.62	2.02	2.66	1.75	3.79	1.82	2.31
C=CC1=C(C)C2=NC1=CC1=NC(=CC3=C(C)C4=C(O)C(C(=O)OC)C(=C5NC(=C2)C(C)C5CCC(=O)OC)C4=N3)C(CC)=C1C (centres undefined)	> 100	> 100	> 100	> 100	> 100	> 100	> 100	> 100	> 100	> 100	–	–	–	–	–	–	–	–	–	–
O=C1CCS/C(=N\S(=O)(=O)c2ccc(N3N=C4c5ccccc5CC4C3c3cccs3)cc2)N1C(=O)c1ccccc1 (centres undefined)	42.7	> 100	34.2	26.8	> 100	> 100	> 100	> 100	> 100	54.7	15	66.5	2.85	5.77	26.6	29.2	5.86	13.7	> 100	24.5
O=C(Nc1ccccc1)Nc1cccc(Oc2nnc(Cl)c3ccccc23)c1	> 25	> 25	10.4	12.3	8.65	10.6	24.3	7.57	10.8	14.9	4.44	5.24	2.12	4.76	2.67	3.26	4.45	2.89	0.863	6.08
CCNCCCn1c2c(c3ccc([N+](=O)[O-])cc3c1=O)C(=O)c1cc(OC)cnc1-2	1.23	1.67	4.33	1.49	0.376	8.67	0.976	1.5	12	1.47	0.0366	0.0874	1.05	0.326	0.0321	0.249	0.0813	0.0527	0.036	0.294
COc1ccc(OC)c2c(=S)c3ccccc3[nH]c12	> 86.1	> 100	> 100	> 100	> 85	> 100	> 100	> 100	> 100	100	–	–	–	–	–	–	–	–	–	–
COc1ccc(N(/C=C/C(=O)C(F)(F)F)CC(=O)c2ccc(Cl)c(Cl)c2)cc1	18.3	39.6	14.6	38.6	27.3	28.3	56.6	30.3	48.3	27.1	3.39	20.2	4.81	14.4	6.73	8.33	5.56	11.3	18.9	13.7
